Literature values as cited in patent publication US8673971B2, “Derivatives of 4-nerolidylcatechol, pharmaceutical compositions comprising them and process for producing the same” (Instituto Nacional de Pesquisa de Amazonia INPA, priority 2007, dated 2014).

What was measured:
[1] = tests based on co-oxidation of substrate (β-carotene, linoleic acid); greater than α-tocoferol

Q: With C=CC(C)(CCC=C(C)CCC=C(C)C)c1ccc(O)c(O)c1 (centres unmarked) [4-nerolidylcatechol] as the molecule, how does the “in vitro antioxidant activity relative to α-tocoferol” value [1] read?
A: 20 times

Q: What about the water solubility of the same molecule?
A: low water solubility
